Values quoted from earlier work, collected in patent US20020013261A1, “Methods and compositions for promoting angiogenesis using polyethylene glycol (PEG) polymers” (priority 2000, published 2002).

Test system: vascularization
Details: purified recombinant protein injected into ischemic skeletal muscle tissue, rabbit chronic limb ischemia

For “basic fibroblast growth factor (bFGF): purified recombinant angiogenic protein”, the vascularization is listed as “modest but significant vascularization”.
